Results from patent US7960377B2 (priority 2008, dated 2011).

Biological target: human CB1 receptor (Homo sapiens, UniProt P21554)
Assay: cell-based
Details: not given

Chain of human CB1 receptor (P21554 whole entry): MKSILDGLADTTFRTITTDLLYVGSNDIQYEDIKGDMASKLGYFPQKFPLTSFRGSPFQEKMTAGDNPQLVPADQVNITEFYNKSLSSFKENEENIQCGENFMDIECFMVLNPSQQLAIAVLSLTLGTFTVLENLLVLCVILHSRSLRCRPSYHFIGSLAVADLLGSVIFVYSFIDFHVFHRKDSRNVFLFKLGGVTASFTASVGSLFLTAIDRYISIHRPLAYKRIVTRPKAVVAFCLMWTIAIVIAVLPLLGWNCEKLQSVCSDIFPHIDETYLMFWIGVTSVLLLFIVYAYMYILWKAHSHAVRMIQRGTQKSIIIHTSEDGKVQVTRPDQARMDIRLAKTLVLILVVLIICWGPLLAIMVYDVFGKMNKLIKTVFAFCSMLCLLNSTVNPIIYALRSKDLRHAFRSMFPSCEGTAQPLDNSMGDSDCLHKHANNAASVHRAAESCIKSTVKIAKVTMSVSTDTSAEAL

Row | Compound | EC50 [µM]
1 | COc1ccc(S(=O)(=O)N2CCOc3ncc(C(=O)NC(C)(C)CO)cc32)cc1Cl [Example 100, 1-(3-chloro-4-methoxyphenylsulfonyl)-N-(1-hydroxy-2-methylpropan-2-yl)-2,3-dihydro-1H-pyrido[2,3-b][1,4]oxazine-7-carboxamide] | > 30
2 | COc1ccc(S(=O)(=O)N2CCOc3ncc(C(=O)NCC(C)(C)O)cc32)cc1F [Example 105] | > 30
3 | CC(C)(O)CNC(=O)c1cnc2c(c1)N(S(=O)(=O)c1ccc(F)cc1F)CCO2 [Example 106, 1-(2,4-difluorophenylsulfonyl)-N-(2-hydroxy-2-methylpropyl)-2,3-dihydro-1H-pyrido[2,3-b][1,4]oxazine-7-carboxamide] | > 30
4 | COc1ccc(S(=O)(=O)N2CCOc3ncc(C(=O)NCC(C)(C)O)cc32)c(F)c1 [Example 107] | > 30
5 | CC(C)(O)CNC(=O)c1cnc2c(c1)N(S(=O)(=O)c1ccc(F)c(Cl)c1)CCO2 [Example 108, 1-(3-chloro-4-fluorophenylsulfonyl)-N-(2-hydroxy-2-methylpropyl)-2,3-dihydro-1H-pyrido[2,3-b][1,4]oxazine-7-carboxamide] | > 30
6 | O=C(NCCO)c1cnc2c(c1)N(S(=O)(=O)c1ccc(Cl)c(Cl)c1)CCO2 [Example 114, 1-(3,4-dichlorophenyl-sulfonyl)-N-(2-hydroxyethyl)-2,3-dihydro-1H-pyrido[2,3-b][1,4]oxazine-7-carboxamide] | > 30
7 | CN(CCO)C(=O)c1cnc2c(c1)N(S(=O)(=O)c1ccc(Cl)c(Cl)c1)CCO2 [Example 120, 1-(3,4-dichlorophenyl-sulfonyl)-N-(2-hydroxy-ethyl)-N-methyl-2,3-dihydro-1H-pyrido[2,3-b][1,4]oxazine-7-carboxamide] | > 30
8 | O=C(c1cnc2c(c1)N(S(=O)(=O)c1ccc(Cl)c(Cl)c1)CCO2)N1CCC[C@@H]1CO [Example 122, (R)-(1-(3,4-dichlorophenyl-sulfonyl)-2,3-dihydro-1H-pyrido[2,3-b][1,4]oxazin-7-yl)(2-(hydroxymethyl)pyrrolidin-1-yl)methanone] | > 30
9 | CN1CCN(C(=O)c2cnc3c(c2)N(S(=O)(=O)c2ccc(Cl)c(Cl)c2)CCO3)CC1 [Example 123, (1-(3,4-dichlorophenyl-sulfonyl)-2,3-dihydro-1H-pyrido [2,3-b][1,4]oxazin-7-yl)(4-methylpiperazin-1-yl)methanone] | > 30
10 | O=C(c1cnc2c(c1)N(S(=O)(=O)c1ccc(Cl)c(Cl)c1)CCO2)N1CCC(F)(F)C1 [Example 126, (1-(3,4-dichlorophenyl-sulfonyl)-2,3-dihydro-1H-pyrido[2,3-b][1,4]oxazin-7-yl)(3,3-difluoro-pyrrolidin-1-yl)methanone] | > 30
11 | O=C(c1cnc2c(c1)N(S(=O)(=O)c1ccc(Cl)c(Cl)c1)CCO2)N1CCC(O)CC1 [Example 127, (1-(3,4-dichlorophenyl-sulfonyl)-2,3-dihydro-1H-pyrido[2,3-b][1,4]oxazin-7-yl)(4-hydroxypiperidin-1-yl)methanone] | > 30
12 | O=C(c1cnc2c(c1)N(S(=O)(=O)c1ccc(Cl)c(Cl)c1)CCO2)N1CC(F)(F)C1 [Example 128, (1-(3,4-dichlorophenyl-sulfonyl)-2,3-dihydro-1H-pyrido[2,3-b][1,4]oxazin-7-yl)(3,3-difluoroazetidin-1-yl)methanone] | > 30
13 | COC1CN(C(=O)c2cnc3c(c2)N(S(=O)(=O)c2ccc(Cl)c(Cl)c2)CCO3)C1 [Example 129, (1-(3,4-dichlorophenyl-sulfonyl)-2,3-dihydro-1H-pyrido[2,3-b][1,4]oxazin-7-yl)(3-methoxyazetidin-1-yl)methanone] | > 30
14 | CCC(C)(C)NC(=O)c1cnc2c(c1)N(S(=O)(=O)N(C)C)CCO2 [Example 143, 1-(N,N-dimethyl-sulfamoyl)-N-tert-pentyl-2,3-dihydro-1H-pyrido[2,3-b][1,4]oxazine-7-carboxamide] | > 30
15 | CN(C)S(=O)(=O)N1CCOc2ncc(C(=O)NC(C)(C)CO)cc21 [Example 144, 1-(N,N-dimethyl-sulfamoyl)-N-(1-hydroxy-2-methylpropan-2-yl)-2,3-dihydro-1H-pyrido[2,3-b][1,4]oxazine-7-carboxamide] | > 30
16 | CN(C)S(=O)(=O)N1CCOc2ncc(C(=O)NC(C)(C)C)cc21 [Example 145, N-tert-butyl-1-(N,N-dimethylsulfamoyl)-2,3-dihydro-1H-pyrido[2,3-b][1,4]oxazine-7-carboxamide] | > 30
17 | CC(C)(CN1CCOCC1)NC(=O)c1cnc2c(c1)N(S(=O)(=O)N1CCCCC1)CCO2 [Example 147, N-(2-methyl-1-morpholinopropan-2-yl)-1-(piperidin-1-ylsulfonyl)-2,3-dihydro-1H-pyrido[2,3-b][1,4]oxazine-7-carboxamide] | > 30
18 | CCC(C)(C)NC(=O)c1cnc2c(c1)N(S(=O)(=O)N1CCN(C)CC1)CCO2 [Example 175, 1-(4-methylpiperazin-1-ylsulfonyl)-N-tert-pentyl-2,3-dihydro-1H-pyrido[2,3-b][1,4]oxazine-7-carboxamide] | > 30
19 | CC(C)(C)NC(=O)c1cnc2c(c1)N(S(=O)(=O)N1CCC(N3CCCC3)CC1)CCO2 [Example 176, N-tert-butyl-1-(4-(pyrrolidin-1-yl)piperidin-1-ylsulfonyl)-2,3-dihydro-1H-pyrido[2,3-b][1,4]oxazine-7-carboxamide] | > 30
20 | CC(C)(CO)NC(=O)c1cnc2c(c1)N(S(=O)(=O)NCc1ccccc1)CCO2 [Example 179, 1-(N-benzylsulfamoyl)-N-(1-hydroxy-2-methylpropan-2-yl)-2,3-dihydro-1H-pyrido[2,3-b][1,4]oxazine-7-carboxamide] | > 30
21 | CC(C)CNS(=O)(=O)N1CCOc2ncc(C(=O)NC(C)(C)CO)cc21 [Example 181, N-(1-hydroxy-2-methylpropan-2-yl)-1-(N-isobutylsulfamoyl)-2,3-dihydro-1H-pyrido[2,3-b][1,4]oxazine-7-carboxamide] | > 30
22 | CC1CN(C(=O)c2cnc3c(c2)N(S(=O)(=O)c2ccc(C(F)(F)F)cc2)CCO3)CC(C)O1 (stereo not shown) [Example 198, (2,6-dimethylmorpholino)(1-(4-(trifluoromethyl)phenylsulf-onyl)-2,3-dihydro-1H-pyrido[2,3-b][1,4]oxazin-7-yl)methanone] | > 30
23 | CC1CC(C)CN(C(=O)c2cnc3c(c2)N(S(=O)(=O)c2ccc(C(F)(F)F)cc2)CCO3)C1 (stereo not shown) [Example 200, (3,5-dimethylpiperidin-1-yl)(1-(4-(trifluoromethyl)phenylsulf-onyl)-2,3-dihydro-1H-pyrido[2,3-b][1,4]oxazin-7-yl)methanone] | > 30

Same assay, conditions: asterisk at the compound number

Row | Compound | inverse agonist mark, human CB1 receptor
24 | CC(C)(C)NC(=O)c1cnc2c(c1)N(S(=O)(=O)c1ccc(Oc3ccccc3)cc1)CCO2 [Example 93, N-tert-butyl-1-(4-phenoxyphenylsulfonyl)-2,3-dihydro-1H-pyrido[2,3-b][1,4]oxazine-7-carboxamide] | 2, 3, 5, 7, 8, 10, 39, 58, 61*, 69, 93*, 101, 102, 109, 110, 111, 112,
25 | O=C(c1cnc2c(c1)N(S(=O)(=O)c1ccc(Cl)c(Cl)c1)CCO2)N1CCC1 [Example 130, azetidin-1-yl(1-(3,4-dichlorophenylsulfonyl)-2,3-dihydro-1H-pyrido[2,3-b][1,4]oxazin-7-yl)methanone] | 130*, 136, 141, 142, 149, 156, 157, 163, 164, 168, 173, 183, 195,
